Data set [1] is classed as physicochemical. As to conditions: pH 7.
The test system of data set [2] is hyperhidrosis (hand sweating). More on the design: species or system human. As to conditions: in vivo.
Data set [3] deals with skin wrinkles under the eyes. More on the design: species or system human. Particulars: in vivo.
A further data set deals with PC12 cells. The format is cell-based.
In data set [4] the test system is sweating area of hind paw of ICR mice. Particulars: mouse, in vivo, 0.8 mg/kg.

Where only a bound is given, the exact number is not on record here.

With `COc1cc(O)c2c(=O)c(OC)c(-c3cc(OC)c(OC)c(OC)c3)oc2c1` [Combretol, combretol], the Residual amount in data set [1] is recorded as <<10%. This molecule returned a Sweat weight in data set [2] of 56%. The “Reduction of skin wrinkle dermal density (%)” value (shortened to “Reduction … (%)”) in data set [3] came to 36%.
In the same order, the values of `COc1cc(-c2oc3cc(O)cc(O)c3c(=O)c2O)cc(O)c1O` [Laricitrin, laricitrin] are <<10%, 52% and 38%.
On to `COc1cc(-c2oc3cc(O)cc(O)c3c(=O)c2O)cc(OC)c1O` [Syringetin, syringetin], for which the Residual amount in data set [1] is reported as <<10%. The same molecule registered a Sweat weight in data set [2] of 53%. Also, in data set [3], the “Reduction … (%)” value worked out at 37%.
Consider `O=c1c(O)c(-c2cc(O)c(O)c(O)c2)oc2cc(O)cc(O)c12` [Myricetin, myricetin], for which the Residual amount in data set [1] was <<10%. This molecule gave a Sweat weight in data set [2] of 55%. The “Reduction … (%)” value in data set [3] is 48%.
Regarding `CC(=O)Oc1c(-c2cc(O)c(O)c(O)c2)oc2cc(O)cc(O)c2c1=O` [3-Acetyl-Myricetin, 3-acetyl-myricetin], in the data set on PC12 cells, the “inhibition of acetylcholine release” value is “inhibit acetylcholine release”. Moreover, the Residual amount result in data set [1] is recorded as “≈100%”. This molecule yielded a Sweat weight in data set [2] of 28%. The “sweating area relative to control” value in data set [4] is recorded as “improved effect to a degree that the previously reported myricetin derivatives cannot provide”. In data set [3], the “Reduction … (%)” value was determined as 78%.
